What was measured:
Test in all cases: relative viability (nuclei count vs DMSO), 5 days (fraction); higher = more cells survive
AT9283 + Linsitinib = compound: O=C(Nc1c[nH]nc1-c1nc2ccc(CN3CCOCC3)cc2[nH]1)NC1CC1 [AT9283] + C[C@]1(O)C[C@@H](c2nc(-c3ccc4ccc(-c5ccccc5)nc4c3)c3c(N)nccn32)C1 [Linsitinib] (partner 1 µM)
Outline: (§1)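 Lung cancer cell lines were seeded in 1536-well plates and dosed by pin tool the next day, with either a single drug or a fixed anchor-drug dose combined with five library-drug doses (not always all listed) spaced in √10 steps. Five days later, one step fixed the cells and stained their nuclei (final 0.05% Triton X-100, 1% formaldehyde, 1 ug/ml Hoechst), and nuclei were counted on 4× images. Relative viability is the nuclei count in treated wells divided by the count in vehicle wells, and each value is the median of duplicate plates.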

Erlotinib + Foretinib = compound: C#Cc1cccc(Nc2ncnc3cc(OCCOC)c(OCCOC)cc23)c1 [Erlotinib] + COc1cc2c(Oc3ccc(NC(=O)C4(C(=O)Nc5ccc(F)cc5)CC4)cc3F)ccnc2cc1OCCCN1CCOCC1 [Foretinib] (partner 0.25 µM)
Outline: as §1

Erlotinib + Luminespib = compound: C#Cc1cccc(Nc2ncnc3cc(OCCOC)c(OCCOC)cc23)c1 [Erlotinib] + CCNC(=O)c1noc(-c2cc(C(C)C)c(O)cc2O)c1-c1ccc(CN2CCOCC2)cc1 [Luminespib] (partner 0.01 µM)
Outline: as §1

AT9283 + Bortezomib = compound: O=C(Nc1c[nH]nc1-c1nc2ccc(CN3CCOCC3)cc2[nH]1)NC1CC1 [AT9283] + CC(C)C[C@H](NC(=O)[C@H](Cc1ccccc1)NC(=O)c1cnccn1)B(O)O [Bortezomib] (partner 0.002 µM)
Outline: as §1

Erlotinib + Alpelisib = compound: C#Cc1cccc(Nc2ncnc3cc(OCCOC)c(OCCOC)cc23)c1 [Erlotinib] + Cc1nc(NC(=O)N2CCC[C@H]2C(N)=O)sc1-c1ccnc(C(C)(C)C(F)(F)F)c1 [Alpelisib] (partner 2 µM)
Outline: as §1

Cell Line | relative viability (AT9283 + Linsitinib; first compound 0.003 µM) | relative viability (AT9283 + Linsitinib; first compound 0.03 µM) | relative viability (AT9283 + Linsitinib; first compound 0.09487 µM) | relative viability (AT9283 + Linsitinib; first compound 0.3 µM) | relative viability (Erlotinib + Foretinib; first compound 0.02 µM) | relative viability (Erlotinib + Foretinib; first compound 0.2 µM) | relative viability (Erlotinib + Foretinib; first compound 0.6325 µM) | relative viability (Erlotinib + Foretinib; first compound 2 µM) | relative viability (Erlotinib + Luminespib; first compound 0.02 µM) | relative viability (Erlotinib + Luminespib; first compound 0.2 µM) | relative viability (Erlotinib + Luminespib; first compound 0.6325 µM) | relative viability (Erlotinib + Luminespib; first compound 2 µM) | relative viability (AT9283 + Bortezomib; first compound 0.003 µM) | relative viability (AT9283 + Bortezomib; first compound 0.03 µM) | relative viability (AT9283 + Bortezomib; first compound 0.09487 µM) | relative viability (AT9283 + Bortezomib; first compound 0.3 µM) | relative viability (Erlotinib + Alpelisib; first compound 0.02 µM) | relative viability (Erlotinib + Alpelisib; first compound 0.2 µM) | relative viability (Erlotinib + Alpelisib; first compound 0.6325 µM) | relative viability (Erlotinib + Alpelisib; first compound 2 µM)
LCLC-103H | 0.952 | 1.04 | 1.07 | 0.419 | 0.743 | 0.799 | 0.848 | 0.566 | 0.99 | 0.884 | 1.05 | 0.821 | 1.08 | 0.935 | 0.641 | 0.538 | 0.882 | 0.953 | 0.994 | 0.91
NCI-H1666 | 0.964 | 0.779 | 0.265 | 0.355 | 1.06 | 0.86 | 0.802 | 0.767 | 0.969 | 0.941 | 1.01 | 0.713 | 0.806 | 0.442 | 0.297 | 0.298 | 0.901 | 0.631 | 0.504 | 0.348
LC-2-ad | 0.847 | 0.257 | 0.116 | 0.112 | 0.876 | 0.658 | 0.665 | 0.528 | 1.13 | 0.976 | 1.17 | 0.745 | 1.08 | 0.509 | 0.233 | 0.108 | 0.909 | 0.843 | 0.834 | 0.686
PC-14 | 1.04 | 0.729 | 0.438 | 0.138 | 0.76 | 0.23 | 0.199 | 0.153 | 0.154 | 0.134 | 0.147 | 0.0981 | 0.944 | 0.704 | 0.179 | 0.116 | 0.562 | 0.133 | 0.171 | 0.112
201T | 1.02 | 1.02 | 0.8 | 0.409 |  |  | 1.17 | 0.888 | 1.01 | 1.03 | 1.06 | 0.874 | 1.02 | 1.14 | 1.09 | 0.487 | 0.999 | 0.968 | 0.966 | 
NCI-H1651 | 1.05 | 0.864 | 0.348 | 0.357 | 0.704 | 0.753 |  | 0.753 | 0.883 | 0.837 | 0.817 | 0.746 | 0.914 | 0.897 | 0.902 | 0.618 | 1.02 | 0.873 | 1.05 | 0.944
RERF-LC-KJ | 0.995 | 0.508 | 0.264 | 0.208 | 0.875 | 0.834 | 0.803 | 0.715 | 1.32 | 0.993 | 1.23 |  | 1.02 | 0.793 | 0.526 | 0.296 | 0.877 | 0.666 | 0.613 | 0.469
COR-L 105 | 0.854 | 0.333 | 0.221 | 0.288 | 0.81 | 0.461 | 0.487 | 0.248 | 0.779 | 0.472 | 0.378 | 0.216 | 0.758 | 0.303 | 0.352 | 0.249 | 1.09 | 0.659 | 0.477 | 0.243
ABC-1 | 0.722 | 0.211 | 0.182 | 0.182 | 1.03 | 0.547 | 1.06 | 0.818 |  | 0.684 | 0.771 | 0.601 | 1.05 | 0.261 | 0.117 | 0.283 | 1.09 | 1.2 | 1.01 | 0.92
NCI-H1915 | 1.06 | 1.01 | 0.529 | 0.239 | 1.08 | 1.2 | 1.12 | 1.1 | 0.819 | 0.777 | 0.908 | 0.725 | 0.769 | 0.952 | 0.887 | 0.341 | 1.09 |  | 1.09 | 
CAL-12T | 0.905 | 0.286 | 0.22 | 0.202 | 1.04 | 1.04 | 0.513 | 0.484 | 0.3 | 0.32 | 0.377 | 0.226 | 0.89 | 0.896 | 0.547 | 0.212 | 1.16 | 0.859 | 0.56 | 0.371
NCI-H1975 | 0.932 | 0.769 | 0.341 | 0.223 | 0.951 | 1.02 |  | 0.71 | 0.222 | 0.157 | 0.169 | 0.306 | 0.388 | 0.264 | 0.173 | 0.179 | 0.717 | 0.696 | 0.535 | 0.454
PC-3 [JPC-3] | 0.94 | 1.03 | 0.74 | 0.521 | 0.935 | 0.384 | 0.323 | 0.36 | 0.64 | 0.363 | 0.406 | 0.306 | 0.822 | 0.86 | 0.867 | 0.687 | 0.799 | 0.368 | 0.352 | 0.323
NCI-H2228 | 0.823 | 0.632 | 0.17 | 0.175 | 0.897 | 0.885 | 0.946 | 0.815 | 0.151 | 0.131 | 0.149 | 0.121 | 1.04 | 0.529 | 0.118 | 0.176 | 0.906 | 0.858 | 0.716 | 0.642
HARA | 0.428 | 0.879 | 0.0968 | 0.0955 | 0.929 | 0.602 | 0.636 | 0.401 | 0.784 | 0.417 | 0.586 | 0.255 | 0.795 | 1.05 | 0.172 | 0.158 | 0.946 | 0.619 | 0.646 | 0.256
NCI-H2347 | 0.952 | 0.975 | 0.555 | 0.389 | 0.877 | 0.841 | 1.08 | 0.61 | 1.25 | 0.557 | 0.441 | 0.902 | 0.933 | 1.01 | 1 | 0.539 | 1.33 | 0.966 | 1.13 | 0.893
